From patent publication US20070158208A1, “Apparatus and methods for treating ballast water by using electrolysis of natural seawater” (Research Institute of Industrial Science & Technology, priority 2003, published 2007)

How the values were obtained:
[1] = NaOCl obtained during the electrolysis compared with HCl; cited from earlier work
[2] = system: Seaweeds spore: Borphyra seriata, Ulva pertusa, Brown seaweed; test: Influence density of NaOCl in electrolyzed water on marine ecosystem; type: in vivo
Procedure: (§1) In the meantime, according to the present invention, marine microorganisms are effectively killed. Influence density for most of organisms in the seawater by electrolyzed water is shown on Table 1 below. As a result of performing the present invention, it has been checked by a natural eye that organisms causing red tide is completely eliminated within 1-2 minutes after spreading of the electrolyzed water. A density of Cochlodinium which has been a population of 7-8 thousand/ml in an actual relevant sea area has approached almost zero after four hours elapse, showing high relief efficiency. If the NaOCl component density required by the electrolyzed water is controlled, complete elimination of marine microorganisms is achieved.

Strombidinopsis sp = test: as above; type: in vivo; conditions: Protista
Procedure: as §1

[3] = system: Adult benthic fauna: Tapes philippinarum, Giant pacific oyster, Pachygrapsus crassipes; test: as above; type: in vivo
Procedure: as §1

Polykrikos kofodidii = test: as above; type: in vivo; conditions: Protista
Procedure: as §1

Oxyrrhis marina = test: as above; type: in vivo; conditions: Protista
Procedure: as §1

[4] = system: Fish: Bastard halibut fry, sebastes schlegeli fry; test: as above; type: in vivo
Procedure: as §1

[5] = system: Artemia larva(Kugenumaenis); test: as above; type: in vivo; conditions: Benthic fauna larva
Procedure: as §1

[6] = system: Adult seaweeds: Borphyra seriata, Ulva pertusa; test: as above; type: in vivo
Procedure: as §1

[7] = system: Pseudodiaptomus spp.(Copepoda); test: as above; type: in vivo; conditions: Zooplankton
Procedure: as §1

Acartia spp.(Copepoda) = test: as above; type: in vivo
Procedure: as §1

Barnacle larva = test: as above; type: in vivo; conditions: Benthic fauna larva
Procedure: as §1

SMILES: [Na+].[O-]Cl [NaOCl]
- Insecticide and sterilizing effects relative to HCl [1]: about 1.4 times
- Influence density [2]: 0.1-0.3 ppm
- Influence density (Strombidinopsis sp): 0.75-1.0 ppm
- Influence density [3]: 20 or more ppm
- Influence density (Polykrikos kofodidii): 0.75-1.0 ppm
- Influence density (Oxyrrhis marina): 0.3 ppm
- Influence density [4]: 2-5 ppm
- Influence density [5]: 30-50 ppm
- Influence density [6]: 1.0-1.5 ppm
- Influence density [7]: 10-20 ppm
- Influence density (Acartia spp.(Copepoda)): 2.0 ppm
- Influence density (Barnacle larva): 50 ppm
